How the values were obtained:
[1] = cited from earlier work
[2] = test system: subjects suffering from active moderate to severe Crohn's disease; assay: Phase III randomized, double-blind, placebo-controlled 52-week maintenance of remission study of laquinimod in Crohn's disease patients; type: in vivo, human; details: 0.25 mg/day oral vs 0.5 mg/day, Example 2
Procedure: A phase III, randomized, double-blind, placebo-controlled 52-week maintenance of remission study of laquinimod is conducted in Crohn's disease patients.
One or more capsules containing laquinimod 0.25 mg, laquinimod 0.5 mg, or matching placebo are administered orally once daily (QD)
Patients with a Response at Week 12 in any of the induction studies, TV5500-IMM-30009, TV5600-IMM-30012, or TV5500-IMM-10013, are re-randomized into this placebo-controlled maintenance study. Response at Week 12 in those induction studies is defined as a Crohn's Disease Activity Index (CDAI) reduction of at least 10 points from Baseline at Week 12. No new patients are included in this maintenance study. […]
Ileonclonoscopy is performed at Baseline Week 12b Visit from the induction study) and Week 52 to directly assess endoscopic disease and mucosal healing. The timing of the ileocolonoscopy is arranged so that it takes place after the final day on which data is recorded for the Week 52 CDAI assessment, and allows time for adequate ileocolonoscopy preparation; consequently, the Week 52 ileocolcnoscopy is performed separately from but within 7 days of) the other Week 52 assessments each endosoopy is recorded, read, and scored by a central reader for an endoscopic score of cDEIS, and mucosal healing determination, […]

[3] = test system: subjects suffering from active moderate to severe Crohn's disease; assay: Phase III randomized, double-blind, placebo-controlled study of oral laquinimod in active moderate to severe Crohn's disease (12 weeks); type: in vivo, human; details: 0.25 mg/day oral vs 0.5 mg/day, Example 1
Procedure: A phase III, multicenter, randomized, double-blind, placebo-controlled study is conducted to evaluate Laquinimod in active moderate to severe Crohn's disease. There are ˜540 Crohn's disease patients enrolled, divided into 3 arms of ˜180 patients, randomized in a […] ratio (˜180 subjects on laquinimod 0.25 mg, ˜180 on laquinimod 0.5 mg, and ˜180 on placebo). One or more capsules containing laquinimod 0.25 mg, laquinimod 0.5 mg, or matching placebo are administered orally once daily; A loading dose regimen of double the maintenance/intended dose is given during the first two days of study drug treatment. Thereafter, starting on day 3, the daily maintenance/intended dose is administered. Patients with moderate to severe Crohn's disease (CD), as determined by a Crohn's Disease Activity Index (CDM) score of 220-450 (inclusive) and evidence of active endoscopic inflammatory disease, based on Crohn's Disease Endoscopic index of Severity (CDEIS) score >6 points. […] The timing of the ileocelonosoopy is arranged so that it takes place after the last day on which data are recorded for the CDAI assessment. […] Each endoscopy is recorded, and then read and scored by a central reader for endoscopic scores of CDEIS and SES-CD. […]

[4] = test system: subjects suffering from active moderate to severe Crohn's disease; assay: Phase III open-label 64-week induction and maintenance study of laquinimod in Crohn's disease patients; type: in vivo, human; details: 0.25 mg/day oral vs 0.5 mg/day, Example 3
Procedure: A phase III, randomized, open-label 64-week induction and maintenance study of laquinimod is conducted in Crohn's disease patients,
One capsule containing laquinimod 0.25 mg or laquinimod 0.5 mg is administered orally once daily at the same hour:
Response at Week 12 in those induction studies is defined as a Crohn's Disease Activity Index (COAT) reduction, of at least 70 points from Baseline. It is anticipated that many non-responders received placebo in the induction studies, so that TV5600-IMM-30011 is their first opportunity to be exposed to any dose of laquinimod. No new patients are included in this study.
Treatment duration is up to 64 weeks. The initial phase of the treatment duration is 12 weeks. Scheduled in-clinic visits are conducted at Baseline (Week 0, Visit 1) and at Weeks 2, 4, 8, and 12. The Baseline visit (Week 0, Visit 1) for this study is the same as the Week 12 visit in the relevant induction study (i.e., not an additional visit). Some additional procedures may be performed on this day, as a part of the TV5600-114M-30011 protocol but not the induction study protocol. Unscheduled visits for safety or for any other reason are conducted at any time during the study. At Week 12 (and at subsequent visits), patients undergo a clinical assessment and are offered either release from the study or continuation of maintenance therapy at the existing dose. […]

Structure (SMILES): CCN(C(=O)c1c(O)c2c(Cl)cccc2n(C)c1=O)c1ccccc1 [laquinimod]
- oral bioavailability [1]: high
- adverse effects of 0.25 mg/day as compared to 0.5 mg/day [2]: maintaining or reducing adverse effects
- efficacy of 0.25 mg/day as compared to 0.5 mg/day (symptoms, clinical response, remission, CDAI, CDEIS, mucosal healing, CRP, fecal calprotectin, IBDQ, WPAI:CD, EQ-5D) [2]: at least as effective, or more effective
- adverse effects of 0.25 mg/day as compared to 0.5 mg/day [3]: maintaining or reducing adverse effects
- efficacy of 0.25 mg/day as compared to 0.5 mg/day (symptoms, clinical response, remission, CDAI, CDEIS, mucosal healing, CRP, fecal calprotectin, IBDQ, WPAI:CD, EQ-5D) [3]: at least as effective, or more effective
- adverse effects of 0.25 mg/day as compared to 0.5 mg/day [4]: maintaining or reducing adverse effects
- efficacy of 0.25 mg/day as compared to 0.5 mg/day (symptoms, clinical response, remission, CDAI, CRP, fecal calprotectin, IBDQ, WPAI:CD, EQ-5D) [4]: at least as effective, or mare effective
